Test system: 435261-313-R-J1-PDC tumor spheroid viability
Experiment: Anticancer human tumor 435261-313-R-J1-PDC patient-derived colon adenocarcinoma cell line growth inhibition [PI3K]
Conditions: spheroids with HUVEC and MSC; for IC50: curve of first compound; for viability, T/C: stronger effect = lower value; active = viability on the fitted dose curve at most 10% of control; inactive = the rest
Text: Combinatorial screen of targeted agents with the PI3K inhibitors inavolisib, alpelisib, duvelisib, and copanlisib in multi-cell type tumor spheroids
A high-throughput screen of multi-cell type tumor spheroids was designed to identify active combinations of targeted small molecules and PI3K pathway inhibitors. Complex spheroids include a stromal component modeled by human endothelial cells (HUVEC) and fibroblasts modeled by human mesenchymal stem cells (MSCs). The concentration ranges selected for each drug and investigational agent were based upon clinically achievable concentrations if the clinical Cmax of the agent was known.
Compounds. The drugs and investigational agents: inavolisib (NSC800729), alpelisib (NSC765974), duvelisib (NSC772469), copanlisib (NSC816437), ipatasertib (NSC767898), afuresertib (NSC778305), talazoparib (NSC767125), sapanisertib (NSC764658), selumetinib (NSC741078), tovorafenib (DAY101, NSC766906), vemurafenib (NSC761431), ravoxertinib (NSC781343), sotorasib (NSC818433), MRTX1133 (NSC 836407), abemaciclib (NSC 768073), palbociclib (NSC758247), venetoclax (NSC 766270), SY5609 (NSC837396), enzalutamide (NSC755605), and darolutamide (NSC825331), were obtained from the National Cancer Institute (NCI) Developmental Therapeutics Program Chemical Repository. The FDA-approved anticancer drug set is available from the NCI Developmental Therapeutics Program. […] The stock solutions were prepared in dimethyl sulfoxide (DMSO, Sigma-Aldrich, St. Louis, MO, cat. D2650) at 800-fold the tested concentration and stored at -70 degrees C prior to their use. All drugs and investigational agents were tested over a range starting from a high concentration at or near the clinical Cmax and decreasing in half-log increments. If the clinical Cmax for an agent had not been determined, the highest concentration tested was 10 microM.
Cell Culture. All cells were maintained in an incubator at 37 degrees C and 5% CO2 with 95% humidity. The PDC lines were cultured according to standard operating procedures established by the NCI PDMR (https://pdmr.cancer.gov/sops/default.htm). All PDCs were thawed and cultured in Matrigel-coated flasks prepared with a working solution of 1X Ham's F-12 nutrient mix, without supplementation (Invitrogen, Waltham, MA, cat. 11765054), 100 U/mL penicillin-streptomycin (Invitrogen, cat. 15140122), and 2.5% Matrigel (Corning Inc., Corning, NY, cat. 354248) for the first three passages. The 354836-022-R-J1-PDC, 475296-252-R-J1-PDC, and 997726-040-R-J2-PDC lines were cultured in 6A media, which includes advanced DMEM/F-12 (Thermo Fisher Scientific, cat. 12634028), 10 mM HEPES (Thermo Fisher Scientific, cat. 15630080), 1X GlutaMAX supplement (Thermo Fisher Scientific, cat. 35050061), 0.1 mg/mL primocin (InvivoGen, San Diego, CA, cat. ant-pm-2), 10% defined fetal bovine serum, heat inactivated (HyClone Laboratories Inc., Logan, UT, cat. SH30070.03HI), 50% L-WRN conditioned media (ATCC, cat. CRL-3276), 1.25 mM N-Acetyl-L-cysteine (Sigma-Aldrich, cat. A9165), 10 mM nicotinamide (Sigma-Aldrich, cat. N0636), 1X B-27 supplement (Thermo Fisher Scientific, cat. 17504044), 1X N-2 supplement (Thermo Fisher Scientific, cat. 17502048), and 10 microM Y-27632 dihydrochloride (Tocris Bioscience, Bristol, United Kingdom, cat. 1254). The 624824-186-R-J2-PDC line was cultured in 6C/Colon 1B media, which includes all 6A media components plus 50 ng/mL human EGF recombinant protein (Thermo Fisher Scientific, cat. PHG0311). […]

[1] = second compound 0.00316 µM, first compound 0.0316 µM
[2] = second compound 0.00316 µM, first compound 0.1 µM
[3] = second compound 0.00316 µM, first compound 0.316 µM
[4] = second compound 0.00316 µM, first compound 1 µM
[5] = second compound 0.00316 µM, first compound 3.16 µM
[6] = second compound 0.00316 µM, first compound 10 µM
[7] = second compound 0.01 µM, first compound 0.0316 µM
[8] = second compound 0.01 µM, first compound 0.1 µM
[9] = second compound 0.01 µM, first compound 0.316 µM
[10] = second compound 0.01 µM, first compound 1 µM
[11] = second compound 0.01 µM, first compound 3.16 µM
[12] = second compound 0.01 µM, first compound 10 µM
[13] = second compound 0.0316 µM, first compound 0.0316 µM
[14] = second compound 0.0316 µM, first compound 0.1 µM
[15] = second compound 0.0316 µM, first compound 0.316 µM
[16] = second compound 0.0316 µM, first compound 1 µM
[17] = second compound 0.0316 µM, first compound 3.16 µM
[18] = second compound 0.0316 µM, first compound 10 µM
[19] = second compound 0.1 µM, first compound 0.0316 µM
[20] = second compound 0.1 µM, first compound 0.1 µM
[21] = second compound 0.1 µM, first compound 0.316 µM
[22] = second compound 0.1 µM, first compound 1 µM
[23] = second compound 0.1 µM, first compound 3.16 µM
[24] = second compound 0.1 µM, first compound 10 µM
[25] = second compound 0.316 µM, first compound 0.0316 µM
[26] = second compound 0.316 µM, first compound 0.1 µM
[27] = second compound 0.316 µM, first compound 0.316 µM
[28] = second compound 0.316 µM, first compound 1 µM
[29] = second compound 0.316 µM, first compound 3.16 µM
[30] = second compound 0.316 µM, first compound 10 µM
[31] = second compound 1 µM, first compound 0.0316 µM
[32] = second compound 1 µM, first compound 0.1 µM
[33] = second compound 1 µM, first compound 0.316 µM
[34] = second compound 1 µM, first compound 1 µM
[35] = second compound 1 µM, first compound 3.16 µM
[36] = second compound 1 µM, first compound 10 µM

CC1(C)CCC(CN2CCN(c3ccc(C(=O)NS(=O)(=O)c4ccc(NCC5CCOCC5)c([N+](=O)[O-])c4)c(Oc4cnc5[nH]ccc5c4)c3)CC2)=C(c2ccc(Cl)cc2)C1 + CC(Nc1ccc2c(c1)OCCn1cc(N3C(=O)OCC3C(F)F)nc1-2)C(N)=O
6.17 µM: IC50 (second compound 0.01 µM)
< 0.0316 µM: IC50 (second compound 0.1 µM) | IC50 (second compound 0.316 µM) | IC50 (second compound 1 µM)
inactive: viability, T/C [1] 69.6% | viability, T/C [2] 90.5% | viability, T/C [3] 79.2% | viability, T/C [4] 127% | viability, T/C [5] 81.3% | viability, T/C [6] 17.4% | viability, T/C [7] 81.3% | viability, T/C [8] 77.5% | viability, T/C [9] 79% | viability, T/C [10] 90.8% | viability, T/C [11] 95.9% | viability, T/C [12] 24.8% | viability, T/C [13] 58.7% | viability, T/C [14] 59.2% | viability, T/C [15] 55.1% | viability, T/C [16] 65.8% | viability, T/C [17] 74.4% | viability, T/C [18] 11.7% | viability, T/C [19] 34.1% | viability, T/C [20] 39.8% | viability, T/C [21] 51.5% | viability, T/C [22] 35.1% | viability, T/C [23] 33.6% | viability, T/C [24] 10.8% | viability, T/C [25] 23.1% | viability, T/C [26] 23.3% | viability, T/C [27] 22.3% | viability, T/C [28] 24% | viability, T/C [29] 26.2% | viability, T/C [30] 8.22% | viability, T/C [31] 16.4% | viability, T/C [32] 20% | viability, T/C [33] 14.9% | viability, T/C [34] 18.3% | viability, T/C [35] 18.8% | viability, T/C [36] 7.07%
5.55 µM: IC50 (second compound 0.00316 µM)
4.21 µM: IC50 (second compound 0.0316 µM)

C[C@@H](NC(=O)c1ncnc(N)c1Cl)c1ncc(C(=O)Nc2cc(C(F)(F)F)c(Cl)cn2)s1 + CC(Nc1ccc2c(c1)OCCn1cc(N3C(=O)OCC3C(F)F)nc1-2)C(N)=O
> 10 µM: IC50 (second compound 0.00316 µM) | IC50 (second compound 0.01 µM) | IC50 (second compound 0.0316 µM)
< 0.0316 µM: IC50 (second compound 0.316 µM) | IC50 (second compound 1 µM)
inactive: viability, T/C [1] 168% | viability, T/C [2] 171% | viability, T/C [3] 154% | viability, T/C [4] 148% | viability, T/C [5] 158% | viability, T/C [6] 116% | viability, T/C [7] 136% | viability, T/C [8] 152% | viability, T/C [9] 191% | viability, T/C [10] 135% | viability, T/C [11] 140% | viability, T/C [12] 108% | viability, T/C [13] 99.4% | viability, T/C [14] 126% | viability, T/C [15] 155% | viability, T/C [16] 158% | viability, T/C [17] 112% | viability, T/C [18] 85.4% | viability, T/C [19] 74.7% | viability, T/C [20] 72% | viability, T/C [21] 115% | viability, T/C [22] 77.2% | viability, T/C [23] 58.6% | viability, T/C [24] 32.5% | viability, T/C [25] 51.3% | viability, T/C [26] 47.6% | viability, T/C [27] 36.9% | viability, T/C [28] 39.3% | viability, T/C [29] 35.8% | viability, T/C [30] 9.29% | viability, T/C [31] 29.2% | viability, T/C [32] 33.5% | viability, T/C [33] 21.3% | viability, T/C [34] 27% | viability, T/C [35] 23% | viability, T/C [36] 6.01%
4.55 µM: IC50 (second compound 0.1 µM)

Reference: PubChem BioAssay AID1963976 (Molecular Pharmacology Branch, DTP, NCI, 2024)
